Three molecules from PMC10648875 (Antimicrobial Agents and Chemotherapy, 2023) can be followed below.

Values after ≈ are worked out from the molar mass of the structure shown. Read-outs that look alike come from different tables or passages of the source.

Assay [1] deals with PAM4879 producing CcrA. The experiment in a line: MIC, engineered isogenic strain. The assay is classed as cell-based, P. aeruginosa. As to conditions: class B, BLIs at fixed 4 µg/mL.
Assay [2] deals with P. aeruginosa BAA-3197 (PA5257), KPC-2. The experiment in a line: MIC, reference strain. The assay is classed as cell-based. The conditions noted are these: for MIC: KPC-2, BLI at the fixed concentration in brackets; for MIC (number of observations): Table S1, repeated QC testing.
For assay [3], the system named is Escherichia coli NCTC 13353 (ECM7514), CTX-M-15. Kind of assay: MIC, reference strain. It is filed as cell-based. The conditions noted are these: for MIC: CTX-M-15, BLI at the fixed concentration in brackets; for MIC (number of observations): Table S1, repeated QC testing. As to the method: (§1) Other BL/BLI combinations were tested at their recommended BLI concentrations. MIC values for the partner antibiotics and BLIs alone were also determined (Table 2; Table S1). All investigational and marketed BLIs enhanced the potency of antibiotics according to their spectrum of inhibition. MIC values against CLSI-approved QC strains were within acceptable ranges for drugs and combinations tested (Table 3).
(§2) Isolates were tested for antimicrobial susceptibility using the broth microdilution methodology per CLSI M07 (2018) guidelines ([40]). JMI Laboratories produced frozen-form 96-well panels with cation-adjusted Mueller-Hinton broth as the testing medium. Current CLSI quality assurance practices were followed when performing the susceptibility tests. MIC values were validated by concurrently testing the following CLSI-recommended ([27]) QC reference strains: E. coli NCTC 13353 (CTX-M-15), Klebsiella pneumoniae ATCC BAA-2814 (KPC-3), Klebsiella pneumoniae ATCC BAA-1705 (KPC-2), and K. pneumoniae ATCC 700603 (SHV-18). The inoculum density during susceptibility testing was monitored by bacterial colony counts. Where applicable, QC ranges for tested reference strains were those approved or published by the CLSI ([27]). Meropenem was purchased from Carbosynth; ceftolozane was synthesized at Acme Bioscience, Palo Alto, CA, USA; all other antibiotics were from Sigma Aldrich. Xeruborbactam was synthesized at Qpex Biopharma, San Diego, CA, USA. Avibactam was purchased from eNovation, Chemicals LLC, Bridgewater, NJ, USA. Vaborbactam was synthesized at The Medicines Company, San Diego, CA. Relebactam, taniborbactam, and relebactam were synthesized at Acme Bioscience.

The subject of assay [4] is PAM4885 producing SPM-1. Kind of assay: MIC, engineered isogenic strain. The assay is classed as cell-based, P. aeruginosa. As to conditions: SPM-1, class B; BLIs at fixed 4 µg/mL.
Assay [5] relates to PAM4890 producing IMP-19. Kind of assay: MIC, engineered isogenic strain. The assay is classed as cell-based, P. aeruginosa. As to conditions: IMP-19, class B; BLIs at fixed 4 µg/mL.
The test system of assay [6] is PAM4907 producing PER-4. The experiment in a line: MIC, engineered isogenic strain. The conditions noted are these: PER-4, class A; BLIs at fixed 4 µg/mL. It is filed as cell-based, P. aeruginosa.
The subject of assay [7] is surveillance isolates of carbapenem-resistant strains of Enterobacterales. The experiment in a line: MIC testing of SENTRY surveillance CRE isolates (Table 4, Table S4). It is filed as cell-based. As to conditions: for % Inhibited: at ≤8 µg/mL β-lactam (IMP/REL ≤1/4, MEM/VAB ≤4/8 (≤8/8) µg/mL), footnote b.
Assay [8] has as its system PAM4884 producing ADC-181. Kind of assay: MIC, engineered isogenic strain. It is filed as cell-based, P. aeruginosa. As to conditions: ADC-181, class C; BLIs at fixed 4 µg/mL.
Assay [9] has as its system PAM4792 producing OXA-2. Kind of assay: MIC, engineered isogenic strain. The assay is classed as cell-based, P. aeruginosa. The conditions noted are these: OXA-2, class D; BLIs at fixed 4 µg/mL.
The test system of assay [10] is K. pneumoniae ATCC BAA-2814 (KP1074), KPC-3. Kind of assay: MIC, reference strain. As to conditions: for MIC: KPC-3, BLI at the fixed concentration in brackets; for MIC (number of observations): Table S1, repeated QC testing. It is filed as cell-based. The method, then: as §1
as §2, with “([27]).” for “([27]). Meropenem was purchased from Carbosynth; ceftolozane was synthesized at Acme Bioscience, Palo Alto, CA, USA; all other antibiotics were from Sigma Aldrich. Xeruborbactam was synthesized at Qpex Biopharma, San Diego, CA, USA. Avibactam was purchased from eNovation, Chemicals LLC, Bridgewater, NJ, USA. Vaborbactam was synthesized at The Medicines Company, San Diego, CA. Relebactam, taniborbactam, and relebactam were synthesized at Acme Bioscience.”

Assay [11] has as its system Klebsiella pneumoniae ATCC 700603 (KPM2881), SHV-18. Kind of assay: MIC, reference strain. It is filed as cell-based. The conditions noted are these: for MIC: SHV-18, BLI at the fixed concentration in brackets; for MIC (number of observations): Table S1, repeated QC testing. The method, then: as §1
as §2, with “([27]).” for “([27]). Meropenem was purchased from Carbosynth; ceftolozane was synthesized at Acme Bioscience, Palo Alto, CA, USA; all other antibiotics were from Sigma Aldrich. Xeruborbactam was synthesized at Qpex Biopharma, San Diego, CA, USA. Avibactam was purchased from eNovation, Chemicals LLC, Bridgewater, NJ, USA. Vaborbactam was synthesized at The Medicines Company, San Diego, CA. Relebactam, taniborbactam, and relebactam were synthesized at Acme Bioscience.”

For assay [12], the system named is K. pneumoniae CDC 0135 (KP1291), VIM-1. The experiment in a line: MIC, reference strain. As to conditions: BLI at the fixed concentration in brackets. The assay is classed as cell-based. The method, then:
as §1
as §2, with “([27]).” for “([27]). Meropenem was purchased from Carbosynth; ceftolozane was synthesized at Acme Bioscience, Palo Alto, CA, USA; all other antibiotics were from Sigma Aldrich. Xeruborbactam was synthesized at Qpex Biopharma, San Diego, CA, USA. Avibactam was purchased from eNovation, Chemicals LLC, Bridgewater, NJ, USA. Vaborbactam was synthesized at The Medicines Company, San Diego, CA. Relebactam, taniborbactam, and relebactam were synthesized at Acme Bioscience.”

Assay [13] deals with K. pneumoniae ATCC BAA-1705 (KPM1123), KPC-2. The experiment in a line: MIC, reference strain. It is filed as cell-based. As to conditions: for MIC: KPC-2, BLI at the fixed concentration in brackets; for MIC (number of observations): Table S1, repeated QC testing. The method, then:
as §1
as §2, with “([27]).” for “([27]). Meropenem was purchased from Carbosynth; ceftolozane was synthesized at Acme Bioscience, Palo Alto, CA, USA; all other antibiotics were from Sigma Aldrich. Xeruborbactam was synthesized at Qpex Biopharma, San Diego, CA, USA. Avibactam was purchased from eNovation, Chemicals LLC, Bridgewater, NJ, USA. Vaborbactam was synthesized at The Medicines Company, San Diego, CA. Relebactam, taniborbactam, and relebactam were synthesized at Acme Bioscience.”

Assay [14] relates to E. coli CDC 0069 (EC1106), NDM-1. Kind of assay: MIC, reference strain. The assay is classed as cell-based. The conditions noted are these: BLI at the fixed concentration in brackets. The method, then:
as §1
as §2, with “([27]).” for “([27]). Meropenem was purchased from Carbosynth; ceftolozane was synthesized at Acme Bioscience, Palo Alto, CA, USA; all other antibiotics were from Sigma Aldrich. Xeruborbactam was synthesized at Qpex Biopharma, San Diego, CA, USA. Avibactam was purchased from eNovation, Chemicals LLC, Bridgewater, NJ, USA. Vaborbactam was synthesized at The Medicines Company, San Diego, CA. Relebactam, taniborbactam, and relebactam were synthesized at Acme Bioscience.”

Assay [15] relates to PAM4196 producing IMP-13. Kind of assay: MIC, engineered isogenic strain. The conditions noted are these: IMP-13, class B; BLIs at fixed 4 µg/mL. It is filed as cell-based, P. aeruginosa.
Assay [16] concerns PAM4745 producing P99. The experiment in a line: MIC, engineered isogenic strain. The assay is classed as cell-based, P. aeruginosa. As to conditions: P99, class C; BLIs at fixed 4 µg/mL.
The test system of assay [17] is PAM4743 producing CTX-M-15. The experiment in a line: MIC, engineered isogenic strain. It is filed as cell-based, P. aeruginosa. The conditions noted are these: CTX-M-15, class A; BLIs at fixed 4 µg/mL.
[18] abbreviates: Pseudomonas aeruginosa, BAA3197, read-out: MIC.
[19] abbreviates: Escherichia coli, NCTC13353, read-out: MIC.
Setting [20] is: Klebsiella pneumoniae, ATCCBAA2814, read-out: MIC.
The mark [21] stands for this setting: Klebsiella pneumoniae, ATCC700603, read-out: MIC.
Where [22] appears, read: Klebsiella pneumoniae, read-out: MIC.
[23] abbreviates: Klebsiella pneumoniae, ATCCBAA1705, read-out: MIC.
Setting [24] is: Escherichia coli, read-out: MIC.

The term MIC denotes the smallest concentration in the dilution series that meets the test's criterion for growth inhibition. A word on the MIC50: it is an inhibitory concentration at the 50% level, which refers to growth in some studies and to a panel of isolates in others. Broadly, the MIC90 is the lowest concentration that inhibits either 90% of growth or 90% of the strains tested, depending on the study.

Take `CO/N=C(\C(=O)N[C@@H]1C(=O)N2C(C(=O)[O-])=C(C[N+]3(C)CCCC3)CS[C@H]12)c1csc(N)n1` [FEP, cefepime]: the MIC is 16 µg/mL (≈ 33.3 µM) in assay [1]; greater than 64 µg/mL in assay [2] (setting [18]); greater than 64 µg/mL in assay [3] (setting [19]); greater than 64 µg/mL in assay [4]; 64 µg/mL (≈ 133 µM) in assay [5]; 64 µg/mL (≈ 133 µM) in assay [6]. For the same molecule, the MIC in assay [8] was 0.5 µg/mL (≈ 1.04 µM); in assay [9] it was 0.5 µg/mL (≈ 1.04 µM); in [10] (setting [20]), greater than 64 µg/mL; in [11] (setting [21]), 1 µg/mL; in [12] (setting [22]) it was greater than 64 µg/mL; in assay [13] (setting [23]), 32 µg/mL. For the same molecule, the MIC in assay [14] (setting [24]) is 64 µg/mL; in assay [15], 16 µg/mL (≈ 33.3 µM); in assay [16] it was 8 µg/mL (≈ 16.6 µM); in [17], greater than 64 µg/mL. For the same molecule, the “MIC (number of observations)” value in assay [2] is greater than 128 µg/mL; in assay [3] it was 32 (1)-64(5)->128 (10) µg/ml; in assay [10], greater than 32 µg/mL; in assay [11], 0.5(1)-1(8)-2(1)-4(1) µg/ml; in assay [13] it was 32 (40)->32(6) µg/ml. For the same molecule, the MIC50 is greater than 32 µg/mL in assay [7]; greater than 32 µg/mL in [7] (All surveillance CRE, read-out: MIC50); greater than 32 µg/mL in [7] (KPC subset, read-out: MIC50); greater than 32 µg/mL in [7] (MBL subset, read-out: MIC50); greater than 32 µg/mL in assay [7] (NDM subset, read-out: MIC50); greater than 32 µg/mL in [7] (No MBL subset, read-out: MIC50). In addition, the MIC50 in [7] (Non-CP CRE subset, read-out: MIC50) is greater than 32 µg/mL; in assay [7] (OXA-48 subset, read-out: MIC50) it was greater than 32 µg/mL; in assay [7] (VIM subset, read-out: MIC50), 32 µg/mL (≈ 66.6 µM). The MIC90 in assay [7] is greater than 32 µg/mL; in assay [7] (All surveillance CRE, read-out: MIC90), greater than 32 µg/mL; in [7] (KPC subset, read-out: MIC90), greater than 32 µg/mL; in assay [7] (MBL subset, read-out: MIC90), greater than 32 µg/mL; in assay [7] (NDM subset, read-out: MIC90), greater than 32 µg/mL; in assay [7] (No MBL subset, read-out: MIC90), greater than 32 µg/mL. The MIC90 in assay [7] (Non-CP CRE subset, read-out: MIC90) is greater than 32 µg/mL; in assay [7] (OXA-48 subset, read-out: MIC90) it was greater than 32 µg/mL; in [7] (VIM subset, read-out: MIC90), greater than 32 µg/mL. The “% Inhibited” value in assay [7] (KPC subset) was determined as 11.70%; in assay [7] (MBL subset), 0.00%; in assay [7] (NDM subset), 0.00%; in [7] (No MBL subset), 15.50%; in assay [7] (Non-CP CRE subset), 15.20%; in [7] (OXA-48 subset) it was 21.50%. In [7] (VIM subset), the “% Inhibited” value is recorded as 0.00%.

As to `O=C(O)c1c(F)ccc2c1OB(O)[C@@H]1C[C@H]21` [Xeruborbactam, xeruborbactam], the MIC was greater than 64 µg/mL in assay [2] (setting [18]); 8 µg/mL in assay [3] (setting [19]); 32 µg/mL in assay [10] (setting [20]); 16 µg/mL in assay [11] (setting [21]); 16 µg/mL in [12] (setting [22]); 16 µg/mL in [13] (setting [23]). Further, the MIC in assay [14] (setting [24]) was found to be 16 µg/mL. Also, the “MIC (number of observations)” value in [2] is given as 64 (1)- >128 (13) µg/ml; in assay [3], 4 (1) - 8 (8) - 16 (2) µg/ml; in [10], 16 (20)-32 (28) µg/ml; in assay [11], 8 (7)-16 (4) µg/ml; in assay [13], 8 (2)-16 (44)-32 (2) µg/ml. Moreover, in assay [7], the “% of isolates with xeruborbactam MIC of ≤8 µg/mL” value was 13.3%. In assay [7] (read-out: MIC50 for xeruborbactam alone, range over all the subsets of isolates), the MIC50 lay within 16 to 32 µg/mL. The “% of isolates without significant growth inhibition at 4 µg/mL” value in assay [7] (xeruborbactam alone at 4 µg/mL) was greater than 99%.

Regarding `NCCN[C@H]1CC[C@H](CC(=O)N[C@H]2Cc3cccc(C(=O)O)c3OB2O)CC1` [Taniborbactam, taniborbactam], the minimal inhibitory concentration (MIC) in assay [2], in assay [3], in assay [10], in [11], in assay [12] and in assay [13] was greater than 64 µg/mL each time. Also, the MIC in assay [14] is greater than 64 µg/mL.
